Results taken from US8158587B2, “Compound having histone deacetylase-inhibiting activity, and pharmaceutical composition comprising the compound as an active ingredient” (Kyushu Institute of Technology, priority 2006, dated 2012).

Key:
human HDAC4 = target: T1, human HDAC4 (Homo sapiens, UniProt P56524); assay: HDAC-inhibiting activity, coumarin-labeled acetylated histone peptide assay; format: biochemical; settings: human HDAC4 from transfected 293T cells; 37° C., 30 minutes; read-out: HDAC-inhibiting activity IC50 HDAC4
T1 construct: made in house; host or cells: 293T cells (transient transfection, anti-FLAG immunoprecipitation, FLAG peptide elution)
T1 sequence (P56524 whole entry): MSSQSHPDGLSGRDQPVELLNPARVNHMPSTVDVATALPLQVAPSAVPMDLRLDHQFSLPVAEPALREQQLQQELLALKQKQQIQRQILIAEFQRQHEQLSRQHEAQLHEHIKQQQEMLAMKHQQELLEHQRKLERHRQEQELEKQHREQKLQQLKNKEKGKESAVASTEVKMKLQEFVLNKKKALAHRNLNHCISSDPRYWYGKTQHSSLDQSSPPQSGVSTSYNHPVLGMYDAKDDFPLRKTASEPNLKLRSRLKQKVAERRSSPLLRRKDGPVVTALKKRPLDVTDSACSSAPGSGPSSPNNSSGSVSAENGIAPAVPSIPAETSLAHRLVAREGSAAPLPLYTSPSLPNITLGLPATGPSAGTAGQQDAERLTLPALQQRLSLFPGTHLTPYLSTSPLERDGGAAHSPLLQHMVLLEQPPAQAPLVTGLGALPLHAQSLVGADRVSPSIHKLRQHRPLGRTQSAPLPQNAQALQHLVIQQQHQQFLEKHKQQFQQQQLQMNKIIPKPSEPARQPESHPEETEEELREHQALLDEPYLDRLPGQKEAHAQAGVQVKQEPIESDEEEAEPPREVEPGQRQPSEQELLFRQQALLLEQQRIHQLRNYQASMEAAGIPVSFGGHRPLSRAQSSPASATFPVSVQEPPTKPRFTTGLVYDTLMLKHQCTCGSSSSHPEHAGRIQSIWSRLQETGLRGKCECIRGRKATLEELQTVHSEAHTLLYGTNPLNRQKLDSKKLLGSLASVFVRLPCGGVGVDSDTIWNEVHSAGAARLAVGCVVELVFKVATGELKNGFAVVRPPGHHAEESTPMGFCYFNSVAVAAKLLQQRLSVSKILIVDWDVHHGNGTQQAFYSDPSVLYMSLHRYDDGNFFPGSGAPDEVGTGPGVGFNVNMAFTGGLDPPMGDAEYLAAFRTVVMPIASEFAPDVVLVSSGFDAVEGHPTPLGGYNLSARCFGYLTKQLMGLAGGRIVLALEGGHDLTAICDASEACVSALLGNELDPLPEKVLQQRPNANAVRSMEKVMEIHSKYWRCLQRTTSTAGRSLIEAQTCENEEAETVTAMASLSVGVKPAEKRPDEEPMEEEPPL
T1 sequence (O15379 whole entry, further chain): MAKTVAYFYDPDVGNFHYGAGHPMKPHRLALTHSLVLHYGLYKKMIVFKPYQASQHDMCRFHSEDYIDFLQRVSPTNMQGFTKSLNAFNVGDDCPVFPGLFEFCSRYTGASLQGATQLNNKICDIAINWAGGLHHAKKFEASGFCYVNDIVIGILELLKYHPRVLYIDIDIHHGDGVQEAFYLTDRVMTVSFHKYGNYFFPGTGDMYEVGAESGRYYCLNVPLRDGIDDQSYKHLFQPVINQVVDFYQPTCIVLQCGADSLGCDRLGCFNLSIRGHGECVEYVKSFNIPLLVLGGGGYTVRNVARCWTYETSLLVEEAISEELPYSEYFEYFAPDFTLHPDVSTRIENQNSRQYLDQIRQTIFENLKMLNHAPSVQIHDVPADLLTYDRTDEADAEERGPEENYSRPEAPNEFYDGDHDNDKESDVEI
Description: In carrying out HDAC-inhibiting activity measurements, HDAC solutions were prepared in the following manner. […] The human HDAC1 expression vector used was pcDNA3-HD1 (Yang, W. M., Yao, Y. L., Sun, […]. & Seto, E. (1997) J. Biol. Chem. 272, 28001-28007), the human HDAC4 expression vector used was pcDNA3-HD4 ([…]., Nagase, […]. Biol. Chem. 274, 11713-11720), and the murine HDAC6 expression vector used was pcDNA3-mHDA2/HDAC6 ([…]. Biol. Chem. 274, 2440-2445). After 24 hours of incubation, cells were recovered, washed with PBS, suspended in lysis buffer (50 mM Tris-HCl (pH 7.5), 120 mM NaCl, 5 mM EDTA, 0.5% Nonidet P-40), and sonicated. The supernatant was collected by centrifugation and then deprived of nonspecific proteins using Protein A/G plus agarose beads (Santa Cruz Biotechnologies, Inc.). Thereafter, anti-FLAG M2 antibody (Sigma-Aldrich Inc.) was added, and the reaction was allowed to proceed at 4° C. for 2 hours. To this were added agarose beads, the reaction was allowed to proceed at 4° C. for 3 hours, and the agarose beads were washed three times with lysis buffer and then once with HD buffer (20 mM Tris-HCl (pH 8.0), 150 mM NaCl, 10% glycerol). […] HDAC-inhibiting activity evaluation in each in vitro system was made as follows. Each test compound was dissolved in DMSO, a stock solution with a concentration of 10 mM was thus prepared and this was used as an inhibitor stock solution. The assay was carried out by incubating the HDAC solution and a coumarin-labeled acetylated histone peptide solution in the presence of the test compound at 37° C. for 30 minutes (reaction volume 20 μl). To the reaction mixture was added 30 μl of trypsin, and the aminomethylcoumarin released by the enzymatic reaction was assayed using a fluorescent plate reader. In a negative control assay, no inhibitor was added to the reaction system and the same procedure was carried out.

[1] = test system: brain tumor cell line SF-539; assay: Human cancer cell line panel, proliferation (sulforhodamine B); format: cell-based; settings: SF-539, 2 days of cultivation; read-out: 50% inhibitory concentration, proliferation
Source text: (§1) The characteristics of the human cancer cell proliferation-inhibiting activity of the compounds of the present invention were examined by the “method of evaluating the mechanisms of action of compounds using a panel of human cancer cell lines” as proposed by Yamori et al. (cf. Gan to Kagaku Ryoho (Cancer and Chemotherapy) 29 Suppl. II (2002) and Cancer Chemother. Pharmacol. 52 Suppl. I, S74-79 (2003)).
(§2) This system includes […] (7 lung cancer, 6 stomach cancer, 5 colon cancer, 5 ovarian cancer, 6 brain tumor, […], 2 kidney cancer and 2 prostate cancer cell lines as well as one melanoma line) and the method comprises measuring the in vitro drug susceptibilities of those cancer cell lines and expressing the differences in drug susceptibility among the respective cancer cell lines as a fingerprint. […] By utilizing this property, it is possible to estimate the mechanisms of action of a compound. The above method is also characterized in that an anticancer substance showing new and unique mechanisms of action different from those of the existing anticancer agents can be selected.
(§3) Cancer cells of each cell line are sowed onto a 96-well plate, a sample solution is added on the next day and, after 2 days of cultivation, the cell proliferation is measured by colorimetry using sulforhodamine B. The deviations in effective concentration for the respective cancer cell lines from the mean effective drug concentration for the 39 cancer cell lines subjected to measurement are calculated and shown in the form a fingerprint.

[2] = test system: brain tumor cell line SNB-75; assay: as above; format: cell-based; settings: SNB-75, 2 days of cultivation; read-out: 50% inhibitory concentration, proliferation
Source text: as §1, §2, §3

[3] = test system: breast cancer cell line BSY-1; assay: as above; format: cell-based; settings: BSY-1, 2 days of cultivation; read-out: 50% inhibitory concentration, proliferation
Source text: as §1, §2, §3

[4] = test system: colon cancer cell line HCC2998; assay: as above; format: cell-based; settings: HCC2998, 2 days of cultivation; read-out: 50% inhibitory concentration, proliferation
Source text: as §1, §2, §3

[5] = test system: colon cancer cell line HT-29; assay: as above; format: cell-based; settings: HT-29, 2 days of cultivation; read-out: 50% inhibitory concentration, proliferation
Source text: as §1, §2, §3

[6] = test system: kidney cancer cell line RXF-631L; assay: as above; format: cell-based; settings: 2 days of cultivation, read-out: 50% inhibitory concentration, proliferation
Source text: as §1, §2, §3

[7] = test system: lung cancer cell line A549; assay: as above; format: cell-based; settings: A549, 2 days of cultivation; read-out: 50% inhibitory concentration, proliferation
Source text: as §1, §2, §3

[8] = test system: lung cancer cell line DMS114; assay: as above; format: cell-based; settings: DMS114, 2 days of cultivation; read-out: 50% inhibitory concentration, proliferation
Source text: as §1, §2, §3

[9] = test system: lung cancer cell line NCI-H226; assay: as above; format: cell-based; settings: NCI-H226, 2 days of cultivation; read-out: 50% inhibitory concentration, proliferation
Source text: as §1, §2, §3

[10] = test system: lung cancer cell line NCI-H23; assay: as above; format: cell-based; settings: NCI-H23, 2 days of cultivation; read-out: 50% inhibitory concentration, proliferation
Source text: as §1, §2, §3

[11] = test system: lung cancer cell line NCI-H460; assay: as above; format: cell-based; settings: NCI-H460, 2 days of cultivation; read-out: 50% inhibitory concentration, proliferation
Source text: as §1, §2, §3

[12] = test system: lung cancer cell line NCI-H522; assay: as above; format: cell-based; settings: NCI-H522, 2 days of cultivation; read-out: 50% inhibitory concentration, proliferation
Source text: as §1, §2, §3

[13] = test system: melanoma cell line LOX-IMVI; assay: as above; format: cell-based; settings: 2 days of cultivation, read-out: 50% inhibitory concentration, proliferation
Source text: as §1, §2, §3

[14] = test system: ovarian cancer cell line OVCAR-5; assay: as above; format: cell-based; settings: OVCAR-5, 2 days of cultivation; read-out: 50% inhibitory concentration, proliferation
Source text: as §1, §2, §3

[15] = test system: ovarian cancer cell line OVCAR-8; assay: as above; format: cell-based; settings: OVCAR-8, 2 days of cultivation; read-out: 50% inhibitory concentration, proliferation
Source text: as §1, §2, §3

[16] = test system: prostate cancer cell line DU-145; assay: as above; format: cell-based; settings: DU-145, 2 days of cultivation; read-out: 50% inhibitory concentration, proliferation
Source text: as §1, §2, §3

[17] = test system: stomach cancer cell line MKN1; assay: as above; format: cell-based; settings: MKN1, 2 days of cultivation; read-out: 50% inhibitory concentration, proliferation
Source text: as §1, §2, §3

Row | IC50 (human HDAC4) | IC50 [1] | IC50 [2] | IC50 [3] | IC50 [4] | IC50 [5] | IC50 [6] | IC50 [7] | IC50 [8] | IC50 [9] | IC50 [10] | IC50 [11] | IC50 [12] | IC50 [13] | IC50 [14] | IC50 [15] | IC50 [16] | IC50 [17] | SMILES
1 | 25 nM | ≤ 100 nM | ≤ 100 nM | ≤ 100 nM | ≤ 100 nM | ≤ 100 nM | ≤ 100 nM | ≤ 100 nM | ≤ 100 nM | ≤ 100 nM | ≤ 100 nM | ≤ 100 nM | ≤ 10 nM | ≤ 100 nM | ≤ 100 nM | ≤ 100 nM | ≤ 100 nM | ≤ 100 nM | CC1(C)NC(=O)[C@H](CCCCCSCc2ccncc2)NC(=O)[C@H]2CCCN2C(=O)[C@H](Cc2ccccc2)NC1=O [Ky-26, cyclo(-L-Am7(4-pyridylmethyl)-Aib-L-Phe-D-Pro-)]
2 | 1600 nM | ≤ 100 nM | ≤ 100 nM | ≤ 100 nM | ≤ 100 nM | ≤ 100 nM | ≤ 100 nM | ≤ 100 nM | ≤ 100 nM | ≤ 100 nM | ≤ 100 nM | ≤ 100 nM | ≤ 10 nM | ≤ 100 nM | ≤ 100 nM | ≤ 100 nM | ≤ 100 nM | ≤ 100 nM | CC(=O)CSCCCCC[C@@H]1NC(=O)[C@H]2CCCN2C(=O)[C@H](Cc2ccccc2)NC(=O)C(C)(C)NC1=O [Ky-72, cyclo(-L-Am7(acetonyl)-Aib-L-Phe-D-Pro-)]
